{"source": "patent US10383837B2", "about": "“Compositions and methods for modulating metabolic pathways” (NuSirt Sciences, Inc., priority 2011, dated 2019)", "key": {"[1]": {"system": "adipocytes (3T3-L1) and myotubes (C2C12)", "experiment": "Fatty acid oxidation screening: dose-response curves and synergy, cell type not separately stated", "type": "cell-based", "conditions": "for concentration that exerts no effect in dose-response curves (sub-therapeutic dose used in synergy experiments): fatty acid oxidation dose-response"}, "myotubes (C2C12)": {"system": "myotubes (C2C12)", "experiment": "Fatty acid oxidation, palmitate-induced O2 consumption (Seahorse XF24), myotubes", "type": "cell-based", "conditions": "24 hours treatment, leucine 0.5 mM, HMB 5 μM, resveratrol 200 nM, partner at its no-effect concentration, % change from control"}, "c2c12 myotubes [2]": {"system": "c2c12 myotubes", "experiment": "Glucose utilization, extracellular acidification response to glucose, myotubes", "type": "cell-based", "conditions": "leucine 0.5 mM, HMB 5 μM, resveratrol 200 nM, partner at its no-effect concentration", "description": "All compounds were tested for potential to independently or synergistically modulate sirtuin signaling either by direct stimulation or indirect via upstream signaling via AMPK. A key outcome of Sirt1 signaling is stimulation of PGC1-α and subsequent stimulation of mitochondrial biogenesis and fatty acid oxidation. Accordingly, fatty acid oxidation, measured as palmitate-induced oxygen consumption as described below, was utilized as a sensitive first level of screening for aerobic mitochondrial metabolism. A dose-response curve for fatty acid oxidation was established for each compound studied, and a “sub-therapeutic dose” was defined as the highest dose that exerted no effect in this system. […] Following assessment of fatty acid oxidation, Sirt1 activity, AMPK activity, mitochondrial biogenesis and glucose utilization (measured as glucose-induced extracellular acidification in the absence of fatty acids in the media) were assessed for lead combinations and appropriate controls. In the absence of a fatty acid source and oxidative metabolism, glycolysis and subsequent lactate production results in extracellular acidification, which was also measured using a Seahorse Bioscience XF24 analyzer. […] Data for each sample were normalized to the pre-glucose injection baseline for that sample and expressed as % change from that baseline. […]"}, "[3]": {"system": "PGC-1α, NRF-1, UCP3 genes", "experiment": "Expression of mitochondrial regulatory and component genes", "type": "cell-based"}, "Adipocytes (3T3-L1)": {"system": "Adipocytes (3T3-L1)", "experiment": "Fatty acid oxidation by 3H-palmitate in 3T3-L1 adipocytes", "type": "cell-based", "conditions": "4 hours, resveratrol 200 nM, HMB 5 uM, leucine 0.5 mM; for increase in fatty acid oxidation, low glucose: low (5 mM) glucose", "description": "High glucose medium reduced fatty acid oxidation by 46% (p<0.05).\nFatty acid oxidation was measured using ^3H-labeled palmitate oxidation, with the ^3H label trapped as water as a result of the fat oxidation. The ^3H was then measured via scintillation counter."}, "[4]": {"experiment": "Indices of insulin sensitivity (plasma glucose, insulin, HOMAIR) in diet-induced obese mice", "type": "in vivo, c57/BL6 mice", "conditions": "6 weeks on diet, low resveratrol 12.5 mg/kg diet, low HMB 2 g CaHMB/kg diet, high HMB 10 g CaHMB/kg diet, leucine 2.42% of diet", "source_text": "Insulin sensitivity can be measured using a variety of techniques, including HOMAIR. HOMAIR, which is the homeostasis model assessment of insulin resistance can be used as a screening index of changes in insulin sensitivity. HOMAIR can be calculated via standard formula from fasting plasma insulin and glucose as follows: HOMAIR=[Insulin (uU/mL)×glucose (mM)]/22.5.\n(§1) Six week old male c57/BL6 mice were fed a high-fat diet with fat increased to 45% of energy (Research Diets D12451) for 6 weeks to induce obesity."}, "myotube": {"system": "myotube", "experiment": "Myotube mitochondrial biogenesis, fluorometric NAO binding, Example 1", "type": "cell-based", "conditions": "myotubes", "description": "(§2) We next investigated the role of intact leucine (0-0.5 mM) vs. its metabolites, α-ketoisocaproic acid (KIC) (0-0.5 mM) and HMB (0-50 μM). […] Both leucine and HMB increased myotube mitochondrial biogenesis (assessed fluorometrically via NAO binding) by ˜50%, (p<0.005, FIG. 3)."}, "Sirt3": {"target": "T1, Sirt3 (Mus musculus, UniProt Q8R104)", "T1 construct": "endogenous in cells; host or cells: 3T3-L1 adipocytes (mitochondrial protein)", "T1 sequence (Q8R104 1-334)": "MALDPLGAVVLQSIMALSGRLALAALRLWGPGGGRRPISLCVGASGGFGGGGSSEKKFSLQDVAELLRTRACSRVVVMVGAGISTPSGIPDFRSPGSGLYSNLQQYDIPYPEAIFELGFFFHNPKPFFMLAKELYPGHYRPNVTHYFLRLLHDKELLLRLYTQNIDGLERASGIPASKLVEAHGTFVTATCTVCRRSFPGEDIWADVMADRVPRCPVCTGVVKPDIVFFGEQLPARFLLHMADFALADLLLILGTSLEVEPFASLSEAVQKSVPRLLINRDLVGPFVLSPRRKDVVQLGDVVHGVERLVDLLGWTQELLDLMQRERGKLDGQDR", "experiment": "Sirt3 activity in mitochondrial protein of treated 3T3-L1 adipocytes", "type": "cell-based", "conditions": "leucine 0.5 mM, HMB 5 μM, resveratrol 200 nM; summary in Example 5"}, "SIRT1": {"target": "T2, SIRT1 (Mus musculus, UniProt Q923E4)", "T2 sequence (Q923E4 1-737)": "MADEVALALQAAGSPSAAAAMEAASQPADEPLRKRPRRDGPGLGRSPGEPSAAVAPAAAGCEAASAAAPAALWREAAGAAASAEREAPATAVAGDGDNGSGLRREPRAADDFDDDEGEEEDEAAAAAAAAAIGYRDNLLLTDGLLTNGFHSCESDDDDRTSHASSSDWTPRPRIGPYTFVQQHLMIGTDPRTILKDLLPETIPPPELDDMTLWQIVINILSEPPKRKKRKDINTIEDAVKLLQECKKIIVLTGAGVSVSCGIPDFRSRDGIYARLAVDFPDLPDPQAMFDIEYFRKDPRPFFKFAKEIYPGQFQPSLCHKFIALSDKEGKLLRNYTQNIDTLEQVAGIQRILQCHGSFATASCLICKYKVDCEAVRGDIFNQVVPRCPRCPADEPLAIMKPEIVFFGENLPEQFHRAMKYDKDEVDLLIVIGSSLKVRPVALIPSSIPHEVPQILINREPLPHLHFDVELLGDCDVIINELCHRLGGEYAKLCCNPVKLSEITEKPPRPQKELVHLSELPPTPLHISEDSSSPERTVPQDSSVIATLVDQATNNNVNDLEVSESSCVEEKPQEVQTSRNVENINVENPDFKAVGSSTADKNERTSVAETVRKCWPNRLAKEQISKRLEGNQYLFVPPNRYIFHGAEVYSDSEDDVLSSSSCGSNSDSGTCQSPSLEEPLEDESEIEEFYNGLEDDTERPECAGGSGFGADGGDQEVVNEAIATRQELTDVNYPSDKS", "experiment": "Adipose tissue Sirt1 activity in diet-induced obese mice", "type": "in vivo, c57/BL6 mice", "set-up": "from tissue; host or cells: adipose tissue of diet-induced obese c57/BL6 mice", "conditions": "6 weeks, low dose of resveratrol, HMB, leucine diets"}, "[5]": {"system": "C-reactive protein, IL-6, MCP-1, adiponectin", "experiment": "Circulating inflammatory biomarkers in diet-induced obese mice", "type": "in vivo, c57/BL6 mice", "conditions": "6 weeks on diet, low resveratrol 12.5 mg/kg diet, low HMB 2 g CaHMB/kg diet, high HMB 10 g CaHMB/kg diet, leucine 2.42% of diet"}, "[6]": {"experiment": "Body weight, weight gain and visceral adipose volume in diet-induced obese mice", "type": "in vivo, c57/BL6 mice", "conditions": "6 weeks on diet, low resveratrol 12.5 mg/kg diet, low HMB 2 g CaHMB/kg diet, high HMB 10 g CaHMB/kg diet, leucine 2.42% of diet", "source_text": "as §1\nAt the of the treatment period (6 weeks) all animals were humanely euthanized, and blood and tissues collected for further experiments."}, "c2c12 myotubes [7]": {"system": "c2c12 myotubes", "experiment": "Fatty acid oxidation (FAO) in c2c12 myotubes, Example 1", "type": "cell-based", "conditions": "in the presence and absence of 20 nM rapamycin", "description": "We have shown that catabolic systems are also stimulated to fuel this process, resulting in increased mitochondrial biogenesis and fatty acid oxidation (FAO). To address the mechanism of this effect, we first determined its mTOR-dependence by assessing leucine stimulation of FAO in the presence and absence of 20 nM rapamycin; although rapamycin inhibited FAO in c2c12 myotubes, the degree of leucine stimulation was preserved (˜50%, p<0.03; FIG. 1).\nas §2"}, "[8]": {"experiment": "Plasma insulin, glucose and HOMAIR in diabetic db/db mice", "type": "in vivo", "conditions": "2 weeks, low dose (150 mg/kg) and very low dose (50 mg/kg) of metformin"}, "[9]": {"conditions": "db/db mice, 2 weeks"}, "[10]": {"conditions": "db/db mice, day 7, insulin 0.75 U/kg i.p.; standard metformin dose or blends"}}, "note": "Marks after values point to notes of the source that are not given here.", "data": [{"compound": "O=C(O)/C=C/c1ccc(O)c(O)c1", "note": "[Caffeic acid, caffeic acid]", "values": [{"measurement": "concentration that exerts no effect in dose-response curves (sub-therapeutic dose used in synergy experiments)", "setting": "[1]", "value": "≤ 1000", "unit": "nM"}]}, {"compound": "Cn1c(=O)c2c(ncn2C)n(C)c1=O", "note": "[Caffeine, caffeine, reference compound]", "values": [{"measurement": "increase in myotube fatty acid oxidation", "setting": "myotubes (C2C12)", "value": "neither component exerted an independent effect"}]}, {"compound": "O=C(O[C@@H]1Cc2c(O)cc(O)cc2O[C@@H]1c1cc(O)c(O)c(O)c1)c1cc(O)c(O)c(O)c1", "note": "[EGCG, epigallocatechin gallate]", "values": [{"measurement": "independent activity in dose-response curves / direct stimulation of fatty acid oxidation", "setting": "[1]", "value": "minimally active"}, {"measurement": "increase in glucose utilization, myotubes", "setting": "c2c12 myotubes [2]", "value": "no independent effect"}]}, {"compound": "O=c1oc2c(O)c(O)cc3c(=O)oc4c(O)c(O)cc1c4c23", "note": "[Ellagic acid, ellagic acid]", "values": [{"measurement": "independent activity in dose-response curves / direct stimulation of fatty acid oxidation", "setting": "[1]", "value": "little activity, even at high concentrations"}]}, {"compound": "CC(C)(O)CC(=O)O", "note": "[HMB, beta-hydroxymethylbutyrate]", "values": [{"measurement": "expression of mitochondrial regulatory (PGC-1α and NRF-1) and component (UCP3) genes", "setting": "[3]", "value": "stimulated expression"}, {"measurement": "increase in fatty acid oxidation, high glucose", "setting": "Adipocytes (3T3-L1); high (25 mM) glucose, vs. control", "value": 29, "unit": "%"}, {"measurement": "increase in fatty acid oxidation, low glucose", "setting": "Adipocytes (3T3-L1)", "value": "no independent effect"}, {"measurement": "Glucose (plasma)", "setting": "[4]", "value": "4.28 ± 0.49^a mM"}, {"measurement": "Insulin (plasma)", "setting": "[4]", "value": "8.3 ± 1.1^a μU/mL"}, {"measurement": "increase in myotube mitochondrial biogenesis (NAO binding)", "setting": "myotube", "value": "~50", "unit": "%"}, {"measurement": "stimulation of Sirt3", "setting": "Sirt3", "value": "no independent effects"}, {"measurement": "adipose tissue Sirt1 activity", "setting": "SIRT1", "value": "Neither resveratrol nor HMB exerted significant independent effects"}, {"measurement": "Adiponectin", "setting": "[5]", "value": "11.1 ± 1.6^a ng/mL"}, {"measurement": "C-reactive protein", "setting": "[5]", "value": "98.6 ± 5.1^a ng/mL"}, {"measurement": "IL-6", "setting": "[5]", "value": "19.9 ± 3.1^a pg/mL"}, {"measurement": "MCP-1", "setting": "[5]", "value": "116.8 ± 9.3^a pg/mL"}, {"measurement": "Visceral Adipose Volume", "setting": "[6]", "value": "6184 ± 460^a mm^3"}, {"measurement": "Weight", "setting": "[6]", "value": "40.3 ± 2.1^a g"}, {"measurement": "Weight gain", "setting": "[6]", "value": "22.5 ± 1.2", "unit": "g"}]}, {"compound": "OC[C@@H](O)[C@@H](O[C@H]1O[C@H](CO)[C@@H](O)[C@H](O)[C@H]1O)[C@H](O)[C@@H](O)CO", "note": "[Maltitol, maltitol]", "values": [{"measurement": "concentration that exerts no effect in dose-response curves (sub-therapeutic dose used in synergy experiments)", "setting": "[1]", "value": "≤ 100", "unit": "nM"}, {"measurement": "synergy with HMB or leucine in stimulating fatty acid oxidation", "setting": "[1]; leucine 0.5 mM, HMB 5 μM", "value": "no synergy was noted"}]}, {"compound": "Cn1c(=O)c2[nH]cnc2n(C)c1=O", "note": "[Theophylline, theophylline, reference compound]", "values": [{"measurement": "concentration that exerts no effect in dose-response curves (sub-therapeutic dose used in synergy experiments)", "setting": "[1]", "value": "below 1 μM"}]}, {"compound": "CC(C)C[C@H](N)C(=O)O", "note": "[leucine]", "values": [{"measurement": "expression of mitochondrial regulatory (PGC-1α and NRF-1) and component (UCP3) genes", "setting": "[3]", "value": "stimulated expression"}, {"measurement": "increase in fatty acid oxidation, low glucose", "setting": "Adipocytes (3T3-L1)", "value": "no independent effect"}, {"measurement": "increase in myotube mitochondrial biogenesis (NAO binding)", "setting": "myotube", "value": "~50", "unit": "%"}, {"measurement": "stimulation of Sirt3", "setting": "Sirt3", "value": "no independent effects"}, {"measurement": "degree of leucine stimulation of FAO", "setting": "c2c12 myotubes [7]", "value": "~50", "unit": "%"}]}, {"compound": "CN(C)C(=N)N=C(N)N", "note": "[metformin]", "values": [{"measurement": "independent effects on any variable studied", "setting": "[8]", "value": "no significant independent effects"}, {"measurement": "visceral fat mass", "setting": "[9]; control 4.5 g", "value": "not affected"}, {"measurement": "effect on body composition", "setting": "[9]; high dose metformin 300 mg/kg bw", "value": "no significant effects"}, {"measurement": "decrease in blood glucose over the 30 minute linear portion of the insulin tolerance test response curve", "setting": "[10]", "value": "~60", "unit": "mg/dL"}]}, {"compound": "fucoxanthin", "values": [{"measurement": "concentration that exerts no effect in dose-response curves (sub-therapeutic dose used in synergy experiments)", "setting": "[1]", "value": "≤ 100", "unit": "nM"}]}]}
